Results: US6783966B1 (priority 2000, dated 2004)

Molecular target: T1, α1,4 Gal-T (Homo sapiens, UniProt Q9NPC4)
T1 sequence (Q9NPC4 1-353): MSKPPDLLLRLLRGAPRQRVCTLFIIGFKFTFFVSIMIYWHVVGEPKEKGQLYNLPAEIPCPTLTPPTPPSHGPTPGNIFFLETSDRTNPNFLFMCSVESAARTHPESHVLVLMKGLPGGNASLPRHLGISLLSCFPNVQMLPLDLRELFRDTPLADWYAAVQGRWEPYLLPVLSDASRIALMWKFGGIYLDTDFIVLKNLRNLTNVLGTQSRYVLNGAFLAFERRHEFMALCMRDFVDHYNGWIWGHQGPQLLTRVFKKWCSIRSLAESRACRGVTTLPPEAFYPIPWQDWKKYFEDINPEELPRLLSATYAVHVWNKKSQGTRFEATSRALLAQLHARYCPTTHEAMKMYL
Test: Enzyme assay of α1,4 Gal-T in membrane fraction of transfected L cells
Conditions: for Km: acceptor substrate of α1,4 Gal-T, donor UDP-Gal; for significant levels of [14C] galactose incorporation (acceptor): potential acceptors, FIG. 4B
Description: The enzyme activity of α1,4 Gal-T in the membrane fraction was measured as descibed previously(ref.4). The reaction mixture for the assay contained the following in a volume of 50 μl:50 mM sodium cacodylate-HCl (pH 6.0), 10 mM MgCl2, 5 mM galactonolactone (Sigma), 0.3% Triton X-100 (Sigma), 0.4 mM (LacCer), 2.9 mM phosphatidylglycerol (Sigma), 0.2 mM UDP-Gal (Sigma), UDP-[^14C] Gal (2.5×10^5 dpm) (NEN), and membrane fraction containing 50 μg protein. The protein concentration was determined by Lowry's methods(ref.20). The products was isolated by a C18 Sep-Pak cartridge (Waters, Milford, Mass.) and analyzed by thin layer chromatography (TLC) and autoradiography using a Bio-Imaging Analyzer BAS2000 (Fuji Film, Tokyo).
Enzyme activity toward other potential acceptors was also examined (FIG. 4B).

| Substance | Km | significant levels of [14C] galactose incorporation (acceptor) |
| --- | --- | --- |
| galactosylceramide | 132 µM | significant levels |
| lactosylceramide [LacCer] | 54.5 µM | significant levels |
